# Measured values as given in patent US20200281932A1, “FORMULATIONS OF COPANLISIB” (Bayer Pharma Aktiengesellschaft, priority 2017, published 2020).
# Where a name gives a salt, the structure may show the parent alone. Read-outs that look alike come from different tables or passages of the source.
# What was measured:
# [1] = Hydrolytic stability of copanlisib in aqueous solutions (HPLC); type: physicochemical; conditions: water, buffer pH 7, 0.1 M hydrochloric acid and 0.1 M sodium hydroxide solution
# Method: The stationary phase is an XBridge Shield HPLC column (150 mm×3.0 mm, 3.5 μm particle size). For peak separation, gradient elution with a flow rate of 0.5 mL/min is chosen using a sodium dodecyl sulfate ion pair eluent (in water with phosphoric acid) as mobile phase A, and a sodium dodecyl sulfate ion pair eluent (in acetonitrile with 20% water and phosphoric acid) as mobile phase B. The applied gradient profile contains four steps running from 40% to 50% mobile phase B within 5 min, from 50% to 65% mobile phase B within 25 min and from 65% to 100% mobile phase B within another 5 min, followed by a 10 min isocratic phase at 100% mobile phase B. The column temperature is kept at 25° C. and the injection volume is 3.0 μL. […] (flow rate of 0.5 ml/min). […] The impurity was assayed at a wavelength of 210 nm and taken into account to determine the degradation products. The different aqueous solutions (0.05% copanlisib; after addition of 50% 2-propanol, [buffer solution filtered with 0.5 μm membrane filter]) were stored at 25° C. and 70° C. for 24 h and one week. An analytical HPLC-method has been developed to determine assay and organic impurities of copanlisib as well as degradation products.
# [2] = Copanlisib in patients with relapsed or refractory indolent B-cell lymphoma: adverse events; type: in vivo, human
# Method: (§1) Methods: Patients with indolent B-cell non-Hodgkin lymphoma (4 subtypes: follicular (FL), marginal zone (MZL), small lymphocytic (SLL) and lymphoplasmacytoid/Waldenström macroglobulinemia (LPL-WM)) and relapsed after, or refractory to, ≥2 prior lines of treatment were eligible. […] Copanlisib (60 mg, I.V.) was intermittently administered on days 1, 8 and 15 of a 28-day cycle. The primary efficacy endpoint was objective tumor response rate (ORR) as assessed per independent radiologic review (Cheson et al., JCO 20:579, 2007).
# [3] = tested on: relapsed or refractory indolent B-cell lymphoma; experiment: Copanlisib in patients with relapsed or refractory indolent B-cell lymphoma: tumor response; type: in vivo, human
# Method: as §1
# [4] = full analysis set, 60 mg I.V. on days 1, 8 and 15 of a 28-day cycle
compound,measurement,setting,value
"COc1c(OCCCN2CCOCC2)ccc2c1N=C(NC(=O)c1cnc(N)nc1)N1CCN=C21 [copanlisib dihydrochloride, 2-amino-N-[7-methoxy-8-(3-morpholin-4-ylpropoxy)-2,3-dihydroimidazo[1,2-c]quinazolin-5-yl]pyrimidine-5-carboxamide dihydrochloride]",Descriptive term (according to Ph. Eur./USP),"0.1M Hydrochloric acid, 25° C.",freely soluble
same,Descriptive term (according to Ph. Eur./USP),"Buffer (citrate) pH 3, 25° C.",freely soluble
same,Descriptive term (according to Ph. Eur./USP),"Buffer (citrate) pH 4, 25° C.",soluble
same,Descriptive term (according to Ph. Eur./USP),"Buffer (citrate) pH 5, 25° C.",very slightly soluble
same,Descriptive term (according to Ph. Eur./USP),"Buffer (phosphate) pH 1, 25° C.",freely soluble
same,Descriptive term (according to Ph. Eur./USP),"Buffer (phosphate) pH 2, 25° C.",freely soluble
same,Descriptive term (according to Ph. Eur./USP),"Buffer (phosphate) pH 6, 25° C.",practically insoluble
same,Descriptive term (according to Ph. Eur./USP),"Buffer (phosphate) pH 7, 25° C.",practically insoluble
same,Descriptive term (according to Ph. Eur./USP),"Water, 25° C.",freely soluble
"COc1c(OCCCN2CCOCC2)ccc2c1N=C(NC(=O)c1cnc(N)nc1)N1CCN=C21 [copanlisib, 2-amino-N-[7-methoxy-8-(3-morpholin-4-ylpropoxy)-2,3-dihydroimidazo[1,2-c]quinazolin-5-yl]pyrimidine-5-carboxamide]",Hydrolytic stability in words,[1],hydrolytic instability
same,AE of interest: colitis,[2]; all grade,0.7%
same,AE of interest: diarrhea,[2]; all grade,18%
same,AE of interest: lung infection,[2]; all grade,14%
same,AE of interest: neutropenia,[2]; all grade,25%
same,AE of interest: pneumonitis,[2]; all grade,7%
same,treatment-related AE: hypertension,[2]; all grade,29%
same,treatment-related AE: transient hyperglycemia,[2]; all grade,49%
same,Laboratory toxicity: alanine aminotransferase,[2]; all-grade,23%
same,Laboratory toxicity: aspartate aminotransferase,[2]; all-grade,28%
same,colonic perforations,[2]; full analysis set,No colonic perforations occurred
same,deaths (number),[2]; full analysis set,6
same,non-fatal opportunistic infections (number),[2]; full analysis set,two
same,AE of interest: colitis,[2]; grade 3+,0.7%
same,AE of interest: diarrhea,[2]; grade 3+,4%
same,AE of interest: lung infection,[2]; grade 3+,11%
same,AE of interest: neutropenia,[2]; grade 3+,19%
same,AE of interest: pneumonitis,[2]; grade 3+,1.4%
same,treatment-related AE: hypertension,[2]; grade 3+,23%
same,treatment-related AE: transient hyperglycemia,[2]; grade 3+,40%
same,Laboratory toxicity: alanine aminotransferase,[2]; grade-1,19%
same,Laboratory toxicity: aspartate aminotransferase,[2]; grade-1,25%
same,deaths attributed to copanlisib (number),"[2]; lung infection, respiratory failure, and a thromboembolic event",3
same,Median overall survival,[3]; at the time of primary analysis,had not yet been reached
same,KM-estimate of median PFS,[3]; full analysis set (range 0-736),340 days
same,overall response rate (ORR),[3]; [4],59.2%
same,partial response (PR),[3]; [4],47.2%
same,progressive disease,[3]; [4],2.1 % of patients
same,stable disease,[3]; [4],29.6 % of patients
